Data set [1] is described as follows: Anti-HCMV cytopathogenicity test: cytostatic effect on NHDF cells. To be noted: human, human prepuce fibroblasts (NHDF cells), 6 days incubation, visual assessment. In kind it is cell-based. As for the experimental part: (§1) Anti-HCMV (Anti-Human Cytomegalovirus) Cytopathogenicity Tests
(§2) The test compounds are employed as 50 millimolar (mM) solutions in dimethyl sulphoxide (DMSO). Ganciclovir®, Foscarnet® and Cidofovir® are used as reference compounds. After addition of in each case 2 μl of the 50, 5, 0.5 and 0.05 mM DMSO stock solutions to 98 μl portions of cell culture medium in row 2 A-H for duplicate determinations, 1:2 dilutions are carried out with 50 μl portions of medium up to row 11 of the 96-well plate. The wells in rows 1 and 12 each contain 50 μl of medium. 150 μl of a suspension of 1×10^4 cells (human prepuce fibroblasts [NHDF]) are then pipetted into each of the wells (row 1=cell control) and, in rows 2-12, a mixture of HCMV-infected and uninfected NHDF cells (M.O.I.=0.001−0.002), i.e. 1-2 infected cells per 1000 uninfected cells. Row 12 (without substance) serves as virus control. The final test concentrations are 250-0.0005 μM. The plates are incubated at 37° C./5% CO2 for 6 days, i.e. until all the cells are infected in the virus controls (100% cytopathogenic effect [CPE]). The wells are then fixed and stained by adding a mixture of formalin and Giemsa's dye (30 minutes), washed with double-distilled water and dried in a drying oven at 50° C. The plates are then assessed visually using an overhead microscope (plaque multiplier from Technomara).
(§3) The following data can be acquired from the test plates:
CC50 (NHDF)=substance concentration in μM at which no visible cytostatic effects on the cells are evident by comparison with the untreated cell control;
For orientation: Protection from cytopathic effect is a common read-out in antiviral testing.

In data set [2] the test system is HCMV (human cytomegalovirus). Put plainly: Anti-HCMV cytopathogenicity test: inhibition of CPE. In kind it is cell-based. Particulars: for EC50: read-out: HCMV EC50. Here is the method:
as §1, §2, §3
EC50 (HCMV)=substance concentration in μM which inhibits the CPE (cytopathic effect) by 50% compared with the untreated virus control;
SI (selectivity index)=CC50 (NHDF)/EC50 (HCMV).

[3] abbreviates: Human betaherpesvirus 5, 144 h, HCMV-infected NHDF cells, M.O.I. 0.001-0.002, 6 days, inhibition of CPE by 50%.

Structures can show the parent of a compound that is named as a salt. Where two headings read alike, the source gives them in different places.

The term CC50 denotes the concentration giving 50% cytotoxicity. Higher therefore signals better tolerance by the cells. As usually defined, the EC50 is the concentration that produces a half-maximal response.

Regarding `COc1cccc(N2CCN(C3=Nc4cnccc4C(CC(=O)O)N3c3cccc(C(F)(F)F)c3)CC2)c1` (stereo not drawn) [Example 4, {2-[4-(3-Methoxyphenyl)piperazin-1-yl]-3-[3-(trifluoromethyl)phenyl]-3,4-dihydropyrido[3,4-d]-pyrimidin-4-yl}acetic acid hydrochloride], the CC50 at 6 days in data set [1] is 94 µM. In data set [2], the “SI HCMV (selectivity index = CC50 (NHDF)/EC50 (HCMV))” value was determined as 470. Also, the EC50 in data set [2] (Human betaherpesvirus 5, NHDF, 144 h) was 200 nM.

For `COc1ccc(C)cc1N1C(N2CCN(c3ccc(F)cc3)CC2)=Nc2ccncc2C1CC(=O)O` (stereo not drawn) [Example 8, [2-[4-(4-Fluorophenyl)piperazin-1-yl]-3-(2-methoxy-5-methylphenyl)-3,4-dihydropyrido[4,3-d]-pyrimidin-4-yl] acetic acid], it took 250 µM to reach half-maximal cytotoxicity in data set [1] (CC50 at 6 days). Besides, the “SI HCMV (selectivity index = CC50 (NHDF)/EC50 (HCMV))” value in data set [2] was 1786. Also, in data set [2] (setting [3]), the EC50 was 140 nM.

`COc1ccc(C(F)(F)F)cc1N1C(N2CCN(c3ccc(F)cc3)CC2)=Nc2ccncc2C1CC(=O)O` (stereo not drawn) [Example 9, {2-[4-(4-Fluorophenyl)piperazin-1-yl]-3-[2-methoxy-5-(trifluoromethyl)phenyl]-3,4-dihydro-pyrido[4,3-d]pyrimidin-4-yl}acetic acid] returned a CC50 at 6 days in data set [1] of 94 µM. Further, in data set [2], the “SI HCMV (selectivity index = CC50 (NHDF)/EC50 (HCMV))” value is 1880. In addition, the EC50 in data set [2] (setting [3]) amounted to 50 nM.

The values above are taken from US7662822B2, “Substituted azaquinazolines having an antiviral action” (Bayer Schering Pharma Aktiengesellschaft, priority 2004, dated 2010).
